Data published in patent US10282514B2, “Method of constructing a data architecture” (The Procter & Gamble Company, priority 2012, dated 2019).

Columns and labels:
[1] = tested on: hyperpigmented spots; assay: 9-week randomized, double-blind, vehicle-controlled, split-face tone benefit study; format: in vivo, human; conditions: 0.05% in SC-99 vehicle, compared to vehicle
Excerpt: This Example provides evidence of the advantages of using composite signatures and illustrates clinical affirmation of the C-map model for predicting efficacy of skin-lightening agents. This Example supports embodiments related to composite signatures (as described at the end of Example 3). An illustrative “Skin Tone” Signature developed from a genomics study using a composite skin-lightening benchmark agent signature is derived from Niacinamide, Hexamidine, Sepiwhite, and NAG. The signature is used to query C-map and generate a list of potential skin-lightening agents. A top hit, Chlorhexidine Diactate (CD) is entered into clinical testing for confirmation of efficacy. The control for clinical efficacy is a 5% Niacinamide+1% Sepiwhite formulation in the control vehicle.
Primary endpoints are changes in color spot area fraction (image analysis) and melanin spot area fraction (NC2) from baseline. Secondary endpoints are changes from baseline in L*a*b (color image analysis), mean melanin gray scale (NC2), and melanin evenness (NC2). Texture area fraction and pore area fraction are also evaluated to explore impact on other aspects relating to overall skin tone. […] Statistically significant superiority to the high efficacy benchmark skin active agent to vehicle performance is the clinical success criteria.
Study Design: The experimental protocol included a 9-week (1-week preconditioning & 8-week treatment), randomized, double-blind, round robin, vehicle-controlled, split-face tone benefit study. The subject population included 330 Chinese females, 25-55 years old with hyperpigmented spots. 318 subjects completed the entire study. […] Olay Complete SPF 15 UV Moisturizing Lotion is concomitantly used during pre-conditioning and treatment. 0.5 g each test product per half-face (forehead to jaw line; ˜4 mg/cm^2) is dosed 2× a day (morning/evening). Color SAF and treatment area, Melanin SAF, gray scale, evenness by NC2, and additional measurement of Fine Lines and Wrinkle and Texture are by REAL 3.01A. Data collection points include baseline, and ends of weeks 4, 6 and 8. […]

[2] = tested on: tert-Keratinocyte (tKC) cell line; assay: C-map query with the tone composite benchmark signature; format: cell-based, human; conditions: composite signature of Niacinamide, Sepiwhite, NAG, Hexamidine
Experimental: (§1) Individual experiments (referred to as batches) generally comprise 30 to 96 samples analyzed using Affymetrix GeneChip® technology platforms, containing 6 replicates of the vehicle control (e.g., DSMO), 2 replicate samples of a positive control that gives a strong reproducible effect in the cell type used, and samples of the test material/perturbagen. Replication of the test material is done in separate batches due to batch effects. In vitro testing was performed in 6-well plates to provide sufficient RNA for GeneChip® analysis (2-4 μg total RNA yield/well).
Human telomerized keratinocytes (tKC) were obtained from the University of Texas, Southwestern Medical Center, Dallas, Tex. tKC cells were grown in EpiLife® media with 1× Human Keratinocyte Growth Supplement (Invitrogen, Carlsbad, Calif.) on collagen I coated cell culture flasks and plates (Becton Dickinson, Franklin Lakes, N.J.). Keratinocytes were seeded into 6-well plates at 20,000 cells/cm^2 24 hours before chemical exposure. Human skin fibroblasts (BJ cell line from ATCC, Manassas, Va.) were grown in Eagle's Minimal Essential Medium (ATCC) supplemented with 10% fetal bovine serum (HyClone, Logan, Utah) in normal cell culture flasks and plates (Corning, Lowell, Mass.). BJ fibroblasts were seeded into 6-well plates at 12,000 cells/cm^2 24 hours before chemical exposure. […]

[3] = tested on: teleomerized human keratinocytes (tKC); assay: C-map query with the Retinoic Acid/Keratinocyte 200 benchmark signature; format: cell-based; conditions: Retinoic Acid Keratinocyte RA_200 signature
Experimental: as §1
Human telomerized keratinocytes (tKC) were obtained from the University of Texas, Southwestern Medical Center, Dallas, Tex. tKC cells were grown in EpiLife® media with 1× Human Keratinocyte Growth Supplement (Invitrogen, Carlsbad, Calif.) on collagen I coated cell culture flasks and plates (Becton Dickinson, Franklin Lakes, N.J.). Keratinocytes were seeded into 6-well plates at 20,000 cells/cm^2 24 hours before chemical exposure. […]
(a) Tert-keratinocytes (tKC) RA Signatures. […] Cells were treated with 1 uM tRA for 6 hr, tested in triplicate, with triplicate DMSO controls, and analyzed on HG-U133A GeneChips. […]

SMILES | Basal skin tone ([1]; week 8) | NC2 Melanin evenness test ([1]; weeks 6 and 8) | spot area fraction color test ([1]; topical 2x a day, week 8) | connectivity to tone composite benchmark signature query [2] | average C-map score [3]
CC(=O)O.CC(=O)O.NC(=N\CCCCCC/N=C(N)/N=C(\N)Nc1ccc(Cl)cc1)/N=C(\N)Nc1ccc(Cl)cc1 [CD, Chlorhexidine Diacetate] | superiority | superiority to the vehicle | significantly fewer spots | top connectivity hit | –
CC1=C(/C=C/C(C)=C/C=C/C(C)=C/C(=O)O)C(C)(C)CCC1 [Retinoic acid, all-trans-retinoic acid] | – | – | – | – | highest score
